Laboratory results reported in ChEMBL document CHEMBL1255210, “Discovery of pyrrolopyridazines as novel DGAT1 inhibitors” (Bioorg Med Chem Lett, 2010).

Assays:
[1] = biological target: T1, Sterol O-acyltransferase 1 (Homo sapiens, UniProt P35610); assay: Inhibition of human full-length flag-tagged ACAT1 expressed in baculovirus infected insect cells after 10 mins
T1 sequence (P35610 whole entry): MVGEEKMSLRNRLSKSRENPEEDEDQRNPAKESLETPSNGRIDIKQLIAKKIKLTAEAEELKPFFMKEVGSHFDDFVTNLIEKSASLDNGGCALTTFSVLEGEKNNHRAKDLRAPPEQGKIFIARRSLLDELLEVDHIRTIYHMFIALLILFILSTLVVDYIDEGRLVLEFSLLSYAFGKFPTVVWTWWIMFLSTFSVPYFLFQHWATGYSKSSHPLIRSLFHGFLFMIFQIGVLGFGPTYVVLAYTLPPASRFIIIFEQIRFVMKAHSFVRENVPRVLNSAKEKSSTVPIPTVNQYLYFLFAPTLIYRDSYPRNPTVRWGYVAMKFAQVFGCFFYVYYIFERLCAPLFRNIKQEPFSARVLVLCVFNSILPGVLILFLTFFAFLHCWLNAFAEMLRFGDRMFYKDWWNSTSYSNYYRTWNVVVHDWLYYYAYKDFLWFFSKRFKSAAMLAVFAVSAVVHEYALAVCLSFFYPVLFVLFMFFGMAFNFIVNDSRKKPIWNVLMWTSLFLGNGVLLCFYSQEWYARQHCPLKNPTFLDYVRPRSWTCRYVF

[2] = biological target: T2, Diacylglycerol O-acyltransferase 1 (Homo sapiens, UniProt O75907); assay: Inhibition of human liver flag-tagged DGAT1 expressed in baculovirus infected insect cells after 2 hrs
T2 sequence (O75907 whole entry): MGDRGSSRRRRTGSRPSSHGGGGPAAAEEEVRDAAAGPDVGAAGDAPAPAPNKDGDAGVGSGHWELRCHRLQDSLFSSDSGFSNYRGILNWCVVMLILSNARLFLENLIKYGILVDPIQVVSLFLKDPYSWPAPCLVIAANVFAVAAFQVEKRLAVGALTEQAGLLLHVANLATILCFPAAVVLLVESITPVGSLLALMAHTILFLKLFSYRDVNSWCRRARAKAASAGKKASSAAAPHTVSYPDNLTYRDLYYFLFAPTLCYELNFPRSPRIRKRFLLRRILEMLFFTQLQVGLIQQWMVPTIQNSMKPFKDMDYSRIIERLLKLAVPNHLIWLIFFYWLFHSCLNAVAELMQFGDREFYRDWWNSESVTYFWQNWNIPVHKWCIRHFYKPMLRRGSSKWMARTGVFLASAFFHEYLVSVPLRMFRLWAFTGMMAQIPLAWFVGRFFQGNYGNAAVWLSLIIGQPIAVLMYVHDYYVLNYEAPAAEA

[3] = biological target: T2, Diacylglycerol O-acyltransferase 1; assay: Inhibition of DGAT1 in human Caco-2 cells after 30 mins; type: cell-based

Row | IC50 [1] [nM] | IC50 [2] [nM] | IC50 [3] [nM] | SMILES
1 | < 300 | 250 |  | CCOC(=O)c1c(C(=O)OCC)c2c(-c3ccccc3)cc(N3CCOCC3)nn2c1-c1ccc(-c2ccccc2)cc1
2 | < 100 | 60 |  | CCOC(=O)c1c(C(=O)OCC)c2c(-c3ccccc3)cc(N3CCOCC3)nn2c1-c1ccc(OCc2ccccc2)cc1
3 | 1050 | 630 |  | CCOC(=O)c1c(C(=O)OCC)c2c(-c3ccccc3)cc(N3CCOCC3)nn2c1-c1ccc(N)cc1
4 |  | > 3000 |  | CCCc1c(C(=O)OCC)c(C(=O)OCC)c2c(-c3ccccc3)cc(N3C[C@@H](C)O[C@@H](C)C3)nn12
5 | 1490 | 1360 |  | CCCc1c(C(=O)OCC)c(C(=O)OCC)c2c(-c3ccccc3)cc(N3CCC3)nn12
6 | 1300 | 120 |  | CCCc1c(C(=O)OCC)c(C(=O)OCC)c2c(-c3ccccc3)cc(N3CCCC3)nn12
7 | 1050 | 180 | 260 | CCCc1c(-c2nc(CCO)no2)c(C(=O)OCC)c2c(-c3ccccc3)cc(N3CCOCC3)nn12
8 | 1300 | 120 |  | CCCc1c(C(=O)OCC)c(C(=O)OCC)c2c(-c3ccccc3)cc(N3CCOCC3)nn12
9 |  | > 3000 |  | CCOC(=O)c1cn2nc(N3CCOCC3)cc(-c3ccccc3)c2c1C(=O)OCC
10 | 1490 | 570 |  | CCCc1c(C(=O)OCC)c(C(=O)OCC)c2c(-c3ccccc3F)cc(N3CCOCC3)nn12
11 | 2590 | 520 |  | CCOC(=O)c1c(C(=O)OCC)c2c(-c3ccccc3)cc(N3CCOCC3)nn2c1C
12 | 2170 | 240 |  | CCOC(=O)c1c(C(=O)OCC)c2c(-c3ccccc3)cc(N3CCOCC3)nn2c1CC
13 |  | > 3000 |  | CCCc1cc(N2CCOCC2)nn2c(CCC)c(C(=O)OCC)c(C(=O)OCC)c12
14 | 1400 | 75 |  | C=CCc1c(C(=O)OCC)c(C(=O)OCC)c2c(-c3ccccc3)cc(N3CCOCC3)nn12
15 |  | > 3000 |  | CCCc1c(C(=O)OCC)c(C(=O)OCC)c2c(C(C)(C)C)cc(N3CCOCC3)nn12
16 |  | > 3000 |  | CCCc1c(C(=O)OCC)c(C(=O)OCC)c2c(C3CCC3)cc(N3CCOCC3)nn12

Row | IC50 [1] [nM] | IC50 [2] [nM] | IC50 [3] [nM] | SMILES
17 | < 300 | 160 |  | CCCCc1c(C(=O)OCC)c(C(=O)OCC)c2c(-c3ccccc3)cc(N3CCOCC3)nn12
18 |  | > 3000 |  | CCCc1c(C(=O)OCC)c(C(=O)OCC)c2c(C3CCCC3)cc(N3CCOCC3)nn12
19 |  | > 3000 |  | CCCc1c(C(=O)OCC)c(C(=O)OCC)c2c(C3CCCCC3)cc(N3CCOCC3)nn12
20 | 3250 | 620 |  | CCOC(=O)c1c(C(=O)OCC)c2c(-c3ccccc3)cc(N3CCOCC3)nn2c1C1CC1
21 | < 1000 | 110 |  | CCCc1c(-c2nc(CC)no2)c(C(=O)OCC)c2c(-c3ccccc3)cc(N3CCOCC3)nn12
22 |  | > 1000 |  | CCOC(=O)c1c(C(=O)OCC)c2c(-c3ccccc3)cc(N3CCOCC3)nn2c1CCCO
23 | 8750 | 240 |  | CCOC(=O)c1c(C(=O)OCC)c2c(-c3ccccc3)cc(N3CCOCC3)nn2c1COC
24 | 260 | 65 |  | CCCc1noc(-c2c(C(=O)OCC)c3c(-c4ccccc4)cc(N4CCOCC4)nn3c2CCC)n1
25 | < 1000 | 57 | 51 | CCCc1c(-c2nc(C(C)C)no2)c(C(=O)OCC)c2c(-c3ccccc3)cc(N3CCOCC3)nn12
26 | 2560 | 270 |  | CCOC(=O)c1c(C(=O)OCC)c2c(-c3ccccc3)cc(N3CCOCC3)nn2c1CCCOC
27 |  | > 1000 |  | CCOC(=O)c1c(C(=O)OCC)c2c(-c3ccccc3)cc(N3CCOCC3)nn2c1CCCN(C)C
28 | < 1000 | 73 | 69 | CCCCc1noc(-c2c(C(=O)OCC)c3c(-c4ccccc4)cc(N4CCOCC4)nn3c2CCC)n1
29 | < 1000 | 110 |  | CCCCCc1noc(-c2c(C(=O)OCC)c3c(-c4ccccc4)cc(N4CCOCC4)nn3c2CCC)n1
30 | 1590 | 180 | 200 | CCCc1c(-c2nc(-c3ccccc3)no2)c(C(=O)OCC)c2c(-c3ccccc3)cc(N3CCOCC3)nn12
31 | 1290 | 570 |  | CCOC(=O)c1c(C(=O)OCC)c2c(-c3ccccc3)cc(N3CCOCC3)nn2c1-c1ccc(O)cc1
